{
  "source": "patent US12173026B2",
  "about": "“PRMT5 inhibitors” (Merck Sharp & Dohme LLC, priority 2018, dated 2024)",
  "data": [
    {"tested_on": "symmetric dimethylation of arginine (SDMA) of PRMT5 substrates in MCF-7 cells", "assay": "PRMT5 Cell Target Engagement (TE) Assay", "assay_type": "cell-based", "details": "Homo sapiens, MCF7, 72 h; MCF-7 cells treated for 3 days; nuclear SDMA by high content imaging; top concentration 10000 nM", "text": "PRMT5 Cell Target Engagement (TE) Assay\nThe PRMT5 TE assay is a biomarker assay for identifying compounds that inhibit symmetric dimethylation of arginine (SDMA) of PRMT5 substrates. The following substrates have been reported for PRMT5: Histone H2A and H4 R3, Histone H3 R2, Histone 1-13 R8, spliceosome Sm proteins, ribosomal protein RPS10, p53, FEN1, nucleoplasmin, nucleolin, EGFR and EBNA. The assay will focus on detecting symnetrically dimethylated nuclear proteins using high content imaging technology. Detection of the expression of symmetrically dimethylated nuclear proteins is through a mixture of primary rabbit monoclonal antibodies to SDMA (CST 13222) which in turn recognized by an Alexafluor 488 dye-conjugated anti-rabbit IgG secondary antibody. The IN Cell Analyzer 2200 or Opera-Phenix measures nuclear Alexafluor 488 fluorescent dye intensity that is directly related to the level of expression of symmetrically dimethylated nuclear proteins at the single cell level. Nuclear AF488 dye intensities are compared to the mean value for DMSO treated cells (MIN) to report percent of inhibition for each compound-treated well.\nIn this assay, the cell potency (EC50) of each compound was determined from a ten point (1:3 serial dilution; top compound concentration of 10000 nM) titration curve using the following outlined procedure. Each well of a BD falcon collagen coated black/clear bottom 384-well plate was seeded with 4000 MCF-7 cells in 30 pal media and allowed to attach for 5 hours. Media is ATCC-formulated Eagle's Minimum Essential Medium, Catalog No. 30-2003. The following components were added to the base medium: 0.01 mg/mL human recombinant insulin; fetal bovine serum to a final concentration of 10%. Additional 30 pal of media containing 2× compounds were added to each well. Cells were treated for 3 days in 37° C. CO2 incubator. On day 3, cells were fixed with Cytofix, permeabilized with 0.4% Triton-X-100/Cytofix, and washed with D-PBS without Ca/Mg. Cells were blocked with Licor Odessey blocking reagent for 1 hour at room temperature, followed by incubation with anti-SDMA (1:1000) antibody at 4° C. overnight. 1° antibody was removed, followed by three washings with DPBS without Ca/Mg and 0.05% Tween20. Hoechst (5 μg/mL), Cell Mask deep stain (1:2000) and Alexa488-conjugated goat anti-rabbit IgG (2 μg/mL) was added for 1 hour at room temperature. A final washing step (three washes) was performed before sealing plate for imaging on in Cell Analyzer 2200 or Opera-Phenix. Images from analyzer were uploaded to Columbus for image analysis. IC50 values were determined by 4 parameters robust fit of percent fluorescence units vs. (Log 10) compound concentrations.", "units": {"EC50": "nM"}, "values": [
      {"compound": "Cc1ncnc2c1ccn2[C@@H]1O[C@@H]2[C@@H](Nc3ccc4cc(F)c(N)nc4c3)CC[C@]2(O)[C@H]1O", "note": "[Example 120, (2R,3R,3aS,6S,6aR)-6-(2-amino-3-fluoroquinolin-7-yl)amino-2-(4-methyl-7H-pyrrolo[2,3-d]pyrimidin-7-yl)hexahydro-3aH-cyclopenta[b]furan-3,3a-diol]", "EC50": 2},
      {"compound": "Nc1nc2cc(O[C@H]3CC[C@@]4(O)[C@@H]3O[C@@H](n3ccc5c(Cl)ncnc53)[C@@H]4O)ccc2cc1Br", "note": "[Example 5, (2R,3R,3aS,6S,6aR)-6-((2-amino-3-bromoquinolin-7-yl)oxy)-2-(4-chloro-7H-pyrrolo[2,3-d]pyrimidin-7-yl)hexahydro-2H-cyclopenta[b]furan-3,3a-diol]", "EC50": 19},
      {"compound": "Nc1nc2cc(C[C@@H]3CC[C@@]4(O)[C@@H]3O[C@@H](n3ccc5c(N)nc(F)nc53)[C@@H]4O)ccc2cc1F", "note": "[Example 45, (2R,3R,3aS,6S,6aR)-2(4-amino-2-fluoro-7H-pyrrolo[2,3-d]pyrimidin-7-yl)-6-((2-amino-3-fluoroquinolin-7-yl)methyl)hexahydro-3aH-cyclopenta[b]furan-3,3a-diol]", "EC50": 1.2},
      {"compound": "Nc1nc2cc(O[C@H]3CC[C@@]4(O)[C@@H]3O[C@@H](n3ccc5c(N)ncnc53)[C@@H]4O)ccc2cc1C(F)F", "note": "[Example 128, (2R,3R,3aS,6S,6aR)-6-((2-amino-3-(difluoromethyl)quinolin-7-yl)oxy)-2-(4-amino-7H-pyrrolo[2,3-d]pyrimidin-7-yl)hexahydro-3aH-cyclopenta[b]furan-3,3a-diol]", "EC50": 15.5},
      {"compound": "Cc1nc(C)c2ccn([C@@H]3O[C@@H]4[C@H](Cc5ccc6cc(Cl)c(N)nc6c5)CC[C@]4(O)[C@H]3O)c2n1", "note": "[Example 91, (2R,3R,3aS,6S,6aR)-6-((2-amino-3-chloroquinolin-7-yl)methyl)-2-(2,4-dimethyl-7H-pyrrolo[2,3-d]pyrimidin-7-yl)hexahydro-3aH-cyclopenta[b]furan-3,3a-diol]", "EC50": 6.3},
      {"compound": "Cc1nc(C)c2ccn([C@@H]3O[C@@H]4[C@H](Cc5ccc6cc(F)c(N)nc6c5)CC[C@]4(O)[C@H]3O)c2n1", "note": "[Example 90, (2R,3R,3aS,6S,6aR)-6-((2-amino-3-fluoroquinolin-7-yl)methyl)-2-(2,4-dimethyl-7H-pyrrolo[2,3-d]pyrimidin-7-yl)hexahydro-3aH-cyclopenta[b]furan-3,3a-diol]", "EC50": 42.2},
      {"compound": "Cc1cn([C@@H]2O[C@@H]3[C@H](Cc4ccc5cc(F)c(N)nc5c4)CC[C@]3(O)[C@H]2O)c2ncnc(N)c12", "note": "[Example 62, (2R,3R,3aS,6S,6aR)-6-((2-amino-3-fluoroquinolin-7-yl)methyl)-2-(4-amino-5-methyl-7H-pyrrolo[2,3-d]pyrimidin-7-yl)hexahydro-3aH-cyclopenta[b]furan-3,3a-diol 2,2,2-trifluoroacetate]", "EC50": 3.7},
      {"compound": "Nc1nc2cc(C[C@@H]3CC[C@@]4(O)[C@@H]3O[C@@H](n3ccc5c(N)ncnc53)[C@@H]4O)ccc2cc1C(F)(F)F", "note": "[Example 76, (2R,3R,3aS,6S,6aR)-6-((2-amino-3-(trifluoromethyl)quinolin-7-yl)methyl)-2-(4-amino-7H-pyrrolo[2,3-d]pyrimidin-7-yl)hexahydro-3aH-cyclopenta[b]furan-3,3a-diol]", "EC50": 8.6},
      {"compound": "Nc1nc2cc(O[C@H]3CC[C@@]4(O)[C@@H]3O[C@@H](n3ccc5c(N)ncnc53)[C@@H]4O)ccc2cc1Cl", "note": "[Example 72, (2R,3R,3aS,6S,6aR)-6-((2-amino-3-chioroquinolin-7-yl)oxy)-2-(4-amino-7H-pyrrolo[2,3-d]pyrimidin-7-yl)hexahydro-3aH-cyclopenta[b]furan-3,3a-diol]", "EC50": 1.2},
      {"compound": "Cc1ncnc2c1ccn2[C@@H]1C[C@](C)(CCc2ccc3cc4c(nc3c2)NCC4)[C@@H](O)[C@H]1O", "note": "[Example 110, (1S,2R,3S,5R)-3-(2-(2,3-dihydro-1H-pyrrolo[2,3-b]quinolin-7-yl)ethyl)-3-methyl-5-(4-methyl-7H-pyrrolo[2,3-d]pyrimidin-7-yl)cyclopentane-1,2-diol]", "EC50": 39.6},
      {"compound": "C[C@@]1(O)[C@@H](CCc2ccc3cc(Br)c(N)nc3c2)C[C@@H](n2ccc3c(N)ncnc32)[C@@H]1O", "note": "[Example 103, (1R,2S,3R,5S)-5-(2-(2-amino-3-bromoquinolin-7-yl)ethyl)-3-(4-amino-7H-pyrrolo[2,3-d]pyrimidin-7-yl)-1-methylcyclopentane-1,2-diol]", "EC50": 12.4},
      {"compound": "Cc1cn([C@@H]2C[C@@H]3[C@H](Cc4cc(F)c5cc(Cl)c(N)nc5c4)CC[C@]3(O)[C@H]2O)c2ncnc(N)c12", "note": "[Example 36, (1S,2R,3aR,4S,6aR)-4-[(2-amino-3-chloro-5-fluoroquinolin-7-yl)methyl]-2-(4-amino-5-methyl-7H-pyrrolo[2,3-d]pyrimidin-7-yl)hexahydropentalene-1,6a(1H)-diol]", "EC50": 1.4},
      {"compound": "Cc1cn([C@@H]2C[C@@H]3[C@H](Cc4cc(F)c5cc(F)c(N)nc5c4)CC[C@]3(O)[C@H]2O)c2ncnc(N)c12", "note": "[Example 35, (1S,2R,3aR,4S,6aR)-4-[(2-amino-3,5-difluoroquinolin-7-yl)methyl]-2-(4-amino-5-methyl-7H-pyrrolo[2,3-d]pyrimidin-7-yl)hexahydropentalene-1,6a(1H)-diol]", "EC50": 0.8},
      {"compound": "Nc1ncnc2c1ccn2[C@@H]1O[C@@H]2[C@@H](Oc3ccc4ccc(NCC(F)(F)F)nc4c3)CC[C@]2(O)[C@H]1O", "note": "[Example 57, (2R,3R,3aS,6S,6aR)-2-(4-amino-7H-pyrrolo[2,3-d]pyrimidin-7-yl)-6-((2-((2,2,2-trifluoroethyl)amino)quinolin-7-yl)oxy)hexahydro-3aH-cyclopenta[b]furan-3,3a-diol]", "EC50": 2.1},
      {"compound": "Cc1ncnc2c1ccn2[C@@H]1O[C@@H]2[C@@H](Oc3ccc4cc(Cl)c(N)nc4c3)CC[C@]2(O)[C@H]1O", "note": "[Example 112, (2R,3R,3aS,6S,6aR)-6-((2-amino-3-chloroquinolin-7-v)oxy)-2-(4-methyl-7H-pyrrolo[2,3-d]pyrimidin-7-yl)hexahydro-2H-cyclopenta[b]furan-3,3a-diol]", "EC50": 4},
      {"compound": "C[C@@]1(O)[C@@H](COc2ccc3cc(Br)c(N)nc3c2)O[C@@H](n2ccc3c(N)ncnc32)[C@@H]1O", "note": "[Example 10, (2R,3S,4R,5R)-2-(((2-amino-3-bromoquinolin-7-yl)oxy)methyl)-5-(4-amino-7H-pyrrolo[2,3-d]pyrimidin-7-yl)-3-methyltetrahydrofuran-3,4-diol]", "EC50": 6.4},
      {"compound": "Nc1nc2cc(C[C@@H]3CC[C@@]4(O)[C@@H]3C[C@@H](n3cc(F)c5c(N)ncnc53)[C@@H]4O)cc(F)c2cc1F", "note": "[Example 30, (1S,2R,3aR,4S,6aR)-4-((2-amino-3,5-difluoroquinolin-7-yl)methyl)-2-(4-amino-5-fluoro-7H-pyrrolo[2,3-d]pyrimidin-7-yl)hexahydropentalene-1,6a(1H)-diol]", "EC50": 0.8},
      {"compound": "Nc1nc2cc(O[C@H]3CC[C@@]4(O)[C@@H]3O[C@@H](n3cc(-c5ccccc5)c5c(N)ncnc53)[C@@H]4O)ccc2cc1Br", "note": "[Example 49, (2R,3R,3aS,6S,6aR)-6-[(2-amino-3-bromoquinolin-7-yl)oxy]-2-(4-amino-5-phenyl-7H-pyrrolo[2,3-d]pyrimidin-7-yl)hexahydro-3aH-cyclcopenta[b]furan-3,3a-diol]", "EC50": 13},
      {"compound": "Nc1nc2cc(C[C@@H]3CC[C@@]4(O)[C@@H]3C[C@@H](n3cc(F)c5c(N)ncnc53)[C@@H]4O)ccc2cc1Cl", "note": "[Example 34, (1S,2R,3aR,4S,6aR)-4-((2-amino-3-chloroquinolin-7-yl)methyl)-2-(4-amino-5-fluoro-7H-pyrrolo[2,3-d]pyrimidin-7-yl)hexahydropentalene-1,6a(1H)-diol]", "EC50": 0.3},
      {"compound": "Nc1nc2c(F)c(C[C@@H]3CC[C@@]4(O)[C@@H]3O[C@@H](n3ccc5c(N)ncnc53)[C@@H]4O)ccc2cc1F", "note": "[Example 20, (2R,3R,3aS,6S,6aR)-6-[(2-amino-3,8-difluoroquinolin-7-yl)methyl]-2-(4-amino-7H-pyrrolo[2,3-d]pyrimidin-7-yl)hexahydro-3aH-cyclopenta[b]furan-3,3a-diol]", "EC50": 18.6},
      {"compound": "C[C@@]1(O)[C@@H](COc2ccc3cc(Br)c(N)nc3c2)C[C@@H](n2ccc3c(Cl)ncnc32)[C@@H]1O", "note": "[Example 1]", "EC50": 18},
      {"compound": "Nc1nc2cc(C[C@@H]3CC[C@@]4(O)[C@@H]3O[C@@H](n3ccc5c(C6CC6)ncnc53)[C@@H]4O)ccc2cc1Br", "note": "[Example 87, (2R,3R,3aS,6S,6aR)-6-((2-amino-3-bromoquinolin-7-yl)methyl)-2-(4-cyclopropyl-7H-pyrrolo[2,3-d]pyrimidin-7-yl)hexahydro-3aH-cyclopenta[b]furan-3,3a-diol]", "EC50": 22.9}
    ]}
  ]
}
